Reference: patent US20210403435A1, “HERBICIDAL COMPOUNDS” (SYNGENTA CROP PROTECTION AG, priority 2018, published 2021)
Counter-ions that a name gives are not always drawn.

How the values were obtained:
Test in all cases: Post-emergence efficacy, glasshouse, evaluated after 13 days
Format in all cases: in vivo
[1] = test system: Euphorbia heterophylla (EPHHL); settings: Euphorbia heterophylla, 312 h; post-emergence application, 500 g/Ha, evaluated after 13 days; read-out: Control of weed species EPHHL (100=total damage to plant; 0=no damage to plant)
How it was run: (§1)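 Post-emergence spray on 14-day-old potted plants; glasshouse 24/16 °C, 14 h light, 65% RH, watered twice daily. Spray: IF50/acetone formulation diluted with 0.25% or 1% Empicol ESC70 + 1% ammonium sulphate. Visual damage at 13 days, 0 = none, 100 = total.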

[2] = test system: Eleusine indica (ELEIN); settings: Eleusine indica, 312 h; post-emergence application, 500 g/Ha, evaluated after 13 days; read-out: Control of weed species ELEIN (100=total damage to plant; 0=no damage to plant)
How it was run: as §1

[3] = test system: Echinochloa crus-galli (ECHCG); settings: Echinochloa crus-galli, 312 h; post-emergence application, 500 g/Ha, evaluated after 13 days; read-out: Control of weed species ECHCG (100=total damage to plant; 0=no damage to plant)
How it was run: as §1

[4] = test system: Lolium perenne (LOLPE); settings: Lolium perenne, 312 h; post-emergence application, 500 g/Ha, evaluated after 13 days; read-out: Control of weed species LOLPE (100=total damage to plant; 0=no damage to plant)
How it was run: as §1

[5] = test system: Setaria faberi (SETFA); settings: Setaria faberi, 312 h; post-emergence application, 500 g/Ha, evaluated after 13 days; read-out: Control of weed species SETFA (100=total damage to plant; 0=no damage to plant)
How it was run: as §1

[6] = test system: Amaranthus palmeri (AMAPA); settings: Amaranthus palmeri, 312 h; post-emergence application, 500 g/Ha, evaluated after 13 days; read-out: Control of weed species AMAPA (100=total damage to plant; 0=no damage to plant)
How it was run: as §1

[7] = test system: Chenopodium album (CHEAL); settings: Chenopodium album, 312 h; post-emergence application, 500 g/Ha, evaluated after 13 days; read-out: Control of weed species CHEAL (100=total damage to plant; 0=no damage to plant)
How it was run: as §1

[8] = test system: Digitaria sanguinalis (DIGSA); settings: Digitaria sanguinalis, 312 h; post-emergence application, 500 g/Ha, evaluated after 13 days; read-out: Control of weed species DIGSA (100=total damage to plant; 0=no damage to plant)
How it was run: as §1

[9] = test system: Ipomoea hederacea (IPOHE); settings: Ipomoea hederacea, 312 h; post-emergence application, 500 g/Ha, evaluated after 13 days; read-out: Control of weed species IPOHE (100=total damage to plant; 0=no damage to plant)
How it was run: as §1

SMILES | pest or weed control at 500 g/ha [1] | pest or weed control at 500 g/ha [2] | pest or weed control at 500 g/ha [3] | pest or weed control at 500 g/ha [4] | pest or weed control at 500 g/ha [5] | pest or weed control at 500 g/ha [6] | pest or weed control at 500 g/ha [7] | pest or weed control at 500 g/ha [8] | pest or weed control at 500 g/ha [9]
Cn1nccc1NC(=O)c1cc[n+](CCC(=O)O)nc1 [Compound A116] | 50% | 40% | 40% | 10% | 40% | 40% | 20% | 60% | 10%
C=CCNC(=O)c1cc[n+](CCC(=O)O)nc1 [Compound A19] | 90% | 90% | 80% | 80% | 80% | 100% | 90% | 100% | 70%
O=C(O)CC[n+]1ccc(C(=O)N2CCS(=O)(=O)CC2)cn1 [Compound A108] | 80% | 80% | 70% | 40% | 90% | 100% | 100% | 90% | 70%
CCNC(=O)c1cc[n+](CCOS(=O)(=O)[O-])nc1 [Compound A80] | 90% | 90% | 90% | 70% | 80% | 100% | 100% | 90% | 70%
CC#CCNC(=O)c1cc[n+](CCC(=O)O)nc1 [Compound A86] | 100% | 90% | 100% | 60% | 100% | 100% | 90% | 100% | 20%
CN(C(=O)c1cc[n+](CCC(=O)O)nc1)c1ccccc1 [Compound A38, 3-[4-[methyl(phenyl)carbamoyl]pyridazin-1-ium-1-yl]propanoic acid trifluoroacetate] | 80% | 60% | 60% | 20% | 90% | 100% | 90% | 70% | 40%
N#CCNC(=O)c1cc[n+](CCC(=O)O)nc1 [Compound A90] | 100% | 100% | 100% | 70% | 100% | 100% | 90% | 100% | 80%
N#CCCNC(=O)c1cc[n+](CCC(=O)O)nc1 [Compound A113] | 90% | 100% | 90% | 90% | 100% | 100% | 80% | 100% | 30%
O=C(O)CC[n+]1ccc(C(=O)Nc2nccs2)cn1 [Compound A102] | 20% | 0% | 0% | 0% | 10% | 100% | 60% | 0% | 20%
CCS(=O)(=O)CCNC(=O)c1cc[n+](CCC(=O)O)nc1 [Compound A118] | 90% | 50% | 40% | 50% | 90% | 100% | 100% | 100% | 40%
CNC(=O)c1cn[n+](CCS(=O)(=O)[O-])cc1-c1ccccc1 [Compound A39] | 50% | 50% | 40% | 10% | 30% | 70% | 70% | 40% | 20%
CC(C#N)NC(=O)c1cc[n+](CCC(=O)O)nc1 (stereo not drawn) [Compound A85] | 100% | 100% | 90% | 60% | 90% | 100% | 90% | 100% | 30%
O=C(O)CC[n+]1ccc(C(=O)NCCO)cn1 [Compound A44] | 100% | 30% | 90% | 30% | 100% | 100% | 100% | 100% | 100%
O=C(O)CC[n+]1ccc(C(=O)NCC2CC2)cn1 [Compound A65] | 100% | 90% | 50% | 50% | 100% | 90% | 90% | 100% | 20%
CC1(NC(=O)c2cc[n+](CCC(=O)O)nc2)CC1 [Compound A92] | 100% | 90% | 80% | 90% | 100% | 100% | 100% | 100% | 50%
CCNC(=O)c1cc[n+](C(C)CC(=O)O)nc1 (stereo not drawn) [Compound A61] | 80% | 90% | 50% | 80% | 50% | 100% | 90% | 100% | 70%
CCNC(=O)c1cc[n+](C(C)(C)CC(=O)O)nc1 [Compound A71] | 20% | 30% | 30% | 30% | 30% | 100% | 70% | 60% | 60%
CS(=O)(=O)CCNC(=O)c1cc[n+](CCC(=O)O)nc1 [Compound A104] | 100% | 100% | 70% | 70% | 100% | 100% | 100% | 100% | 80%
CN(C)S(=O)(=O)CCNC(=O)c1cc[n+](CCC(=O)O)nc1 [Compound A110] | 60% | 30% | 50% | 60% | 90% | 90% | 50% | 100% | 20%
O=C(O)CC[n+]1ccc(C(=O)Nc2ccc(F)cc2F)cn1 [Compound A106] | 60% | 70% | 10% | 50% | 90% | 100% | 50% | 40% | 30%
